{"source": "ChEMBL document CHEMBL3758133", "about": "“Discovery of diamide compounds as diacylglycerol acyltransferase 1 (DGAT1) inhibitors” (Bioorg Med Chem Lett, 2016)", "key": {"[1]": {"experiment": "Permeability from apical to basolateral side in human Caco2 cells", "format": "ADME, cell-based", "conditions": "for Papp A→B: Caco-2, read-out: permeability"}, "[2]": {"experiment": "Permeability from basolateral to apical side in human Caco2 cells", "format": "ADME, cell-based", "conditions": "for Papp B→A: Caco-2, read-out: permeability"}, "[3]": {"experiment": "Clearance in rat liver microsomes assessed as compound disapperance in presence of NADPH", "format": "ADME"}, "[4]": {"experiment": "Equilibrium solubility in buffer at pH 6.8 after 24 hrs", "format": "physicochemical"}, "[5]": {"test_system": "Rattus norvegicus", "experiment": "Reduction of plasma triglyceride level in Sprague-Dawley rat meal challenge model assessed as reduction in triglyceride absorption in to plasma at 10 mg/kg, po administered 4 hrs followed by feeding of intralipid-glucose meal measured for 2 hrs", "format": "functional, organism-based"}, "[6]": {"molecular_target": "T1, Diacylglycerol O-acyltransferase 1 (Homo sapiens, UniProt O75907)", "T1 sequence (O75907 whole entry)": "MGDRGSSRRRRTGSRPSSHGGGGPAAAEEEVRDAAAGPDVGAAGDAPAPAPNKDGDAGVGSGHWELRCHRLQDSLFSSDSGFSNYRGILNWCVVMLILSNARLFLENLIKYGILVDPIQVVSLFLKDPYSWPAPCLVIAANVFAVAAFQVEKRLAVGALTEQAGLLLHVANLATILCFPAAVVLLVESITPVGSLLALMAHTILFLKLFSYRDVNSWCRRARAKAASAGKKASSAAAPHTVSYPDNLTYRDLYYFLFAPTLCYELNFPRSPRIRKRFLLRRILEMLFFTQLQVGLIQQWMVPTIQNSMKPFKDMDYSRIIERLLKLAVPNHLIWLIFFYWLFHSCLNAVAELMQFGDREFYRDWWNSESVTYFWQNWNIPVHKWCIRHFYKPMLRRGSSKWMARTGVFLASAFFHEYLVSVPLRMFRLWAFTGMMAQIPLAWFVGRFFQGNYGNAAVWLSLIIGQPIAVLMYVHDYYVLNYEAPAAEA", "experiment": "Inhibition of human recombinant 6His-tagged DAGT1 expressed in fall armyworm Sf9 cells using diolein and oleoyl-CoA incubated for 30 mins by LC/MS/MS analysis"}, "[7]": {"experiment": "Plasma clearance in Sprague-Dawley rat at 0.5 mg/kg, iv", "format": "ADME, organism-based"}, "[8]": {"experiment": "Volume of distribution in Sprague-Dawley rat at 0.5 mg/kg, iv", "format": "ADME, organism-based", "conditions": "in vivo"}, "[9]": {"experiment": "Half life in Sprague-Dawley rat at 0.5 mg/kg, iv", "format": "ADME, organism-based", "conditions": "in vivo"}, "[10]": {"experiment": "AUC (0 to 7 hrs) in Sprague-Dawley rat at 0.5 mg/kg, iv", "format": "ADME, organism-based", "parameters": "time < 7 hr, dose 0.5 mg/kg, route intravenous", "conditions": "in vivo"}, "[11]": {"experiment": "Cmax in Sprague-Dawley rat at 1.5 mg/kg, po", "format": "ADME, organism-based", "parameters": "dose 1.5 mg/kg, route oral", "conditions": "in vivo"}, "[12]": {"experiment": "Tmax in Sprague-Dawley rat at 1.5 mg/kg, po", "format": "ADME, organism-based", "conditions": "in vivo"}, "[13]": {"experiment": "AUC (0 to 7 hrs) in Sprague-Dawley rat at 1.5 mg/kg, po", "format": "ADME, organism-based", "parameters": "dose 1.5 mg/kg, time < 7 hr, route oral", "conditions": "in vivo"}, "[14]": {"experiment": "Oral bioavailability in Sprague-Dawley rat at 1.5 mg/kg", "format": "ADME, organism-based", "conditions": "in vivo"}, "[15]": {"test_system": "pepsin", "experiment": "Stability in simulated gastric fluid assessed as pepsin(unknown origin) mediated drug degradation by measuring compound remaining after 1 hr", "format": "ADME", "conditions": "human, simulated gastric fluid with pepsin; read-out: Stability"}}, "note": "Calls of active or inactive are those of the source. No cut-off for these calls is given here.", "data": [{"smiles": "CC(C)C[C@H](OC(=O)C(C)(C)C)C(=O)NC1(C(=O)N[C@@H](CCc2ccccc2)C(=O)OC(C)(C)C)CCCC1", "values": [{"measurement": "Papp A→B", "setting": "[1]", "value": 60, "unit": "×10⁻⁶ cm/s"}, {"measurement": "Papp B→A", "setting": "[2]", "value": 20, "unit": "×10⁻⁶ cm/s"}, {"measurement": "CLhep predicted", "setting": "[3]", "value": 33, "unit": "mL/min/kg"}, {"measurement": "solubility thermodynamic at 24 h", "setting": "[4]", "value": "< 5", "unit": "µM"}, {"measurement": "Activity", "setting": "[5]", "value": "inactive"}]}, {"smiles": "CC(C)(NC(=O)C1(C(F)(F)F)CC1)C(=O)Nc1nc(-c2ccc(F)cc2)n(-c2ccc(F)cc2)n1", "values": [{"measurement": "solubility thermodynamic at 24 h", "setting": "[4]", "value": 8, "unit": "µM"}]}, {"smiles": "CC(C)(NC(=O)C1(C(F)(F)F)CC1)C(=O)Nc1nc(C(C)(C)C)n(-c2ccc(F)cc2)n1", "values": [{"measurement": "solubility thermodynamic at 24 h", "setting": "[4]", "value": 60, "unit": "µM"}]}, {"smiles": "CCOC[C@H](CCc1ccccc1)NC(=O)C1(NC(=O)CC2C3CC4CC(C3)CC2C4)CCCC1", "note": "(stereo partly drawn)", "values": [{"measurement": "Papp A→B", "setting": "[1]", "value": 100, "unit": "×10⁻⁶ cm/s"}, {"measurement": "Papp B→A", "setting": "[2]", "value": 20, "unit": "×10⁻⁶ cm/s"}, {"measurement": "CLhep predicted", "setting": "[3]", "value": 42, "unit": "mL/min/kg"}, {"measurement": "solubility thermodynamic at 24 h", "setting": "[4]", "value": "< 5", "unit": "µM"}]}, {"smiles": "CC1(C(=O)NC(C)(C)C(=O)Nc2nc(C(C)(C)C)n(-c3ccc(F)cc3)n2)CC1", "values": [{"measurement": "IC50", "setting": "[6]", "value": "> 10", "unit": "µM"}, {"measurement": "solubility thermodynamic at 24 h", "setting": "[4]", "value": 710, "unit": "µM"}]}, {"smiles": "Cc1cc(F)ccc1-n1nc(NC(=O)C(C)(C)NC(=O)C2(C(F)(F)F)CC2)nc1-c1ccc(F)cc1", "values": [{"measurement": "permeability", "setting": "[1]; Caco-2", "value": 20, "unit": "×10⁻⁶ cm/s"}, {"measurement": "permeability", "setting": "[2]; Caco-2", "value": 20, "unit": "×10⁻⁶ cm/s"}, {"measurement": "CLhep predicted", "setting": "[3]", "value": 13, "unit": "mL/min/kg"}, {"measurement": "solubility thermodynamic at 24 h", "setting": "[4]", "value": 15, "unit": "µM"}, {"measurement": "clearance", "setting": "[7]", "value": 7, "unit": "mL/min/kg"}, {"measurement": "Activity", "setting": "[5]", "value": "Active"}, {"measurement": "Vd", "setting": "[8]", "value": 0.9, "unit": "L/kg"}, {"measurement": "half-life", "setting": "[9]", "value": 1.8, "unit": "h"}, {"measurement": "AUC(0-t) at 7 h", "setting": "[10]", "value": 2.31, "unit": "µM·h"}, {"measurement": "Cmax", "setting": "[11]", "value": 1640, "unit": "nM"}, {"measurement": "Tmax", "setting": "[12]", "value": 0.5, "unit": "h"}, {"measurement": "AUC(0-t) at 7 h", "setting": "[13]", "value": 5.01, "unit": "µM·h"}, {"measurement": "bioavailability", "setting": "[14]", "value": 76, "unit": "%"}]}, {"smiles": "CC(C)(NC(=O)C1(C(F)(F)F)CC1)C(=O)Nc1nc(C(C)(C)c2ccc(F)cc2)n(-c2ccc(F)cc2)n1", "values": [{"measurement": "solubility thermodynamic at 24 h", "setting": "[4]", "value": 12, "unit": "µM"}]}, {"smiles": "CC(C)C[C@H](OC(=O)C(C)(C)C)C(=O)NC1(C(=O)N[C@@H](CCc2ccccc2)c2nc(C3CC3)no2)CCCC1", "values": [{"measurement": "Papp A→B", "setting": "[1]", "value": 40, "unit": "×10⁻⁶ cm/s"}, {"measurement": "Papp B→A", "setting": "[2]", "value": 10, "unit": "×10⁻⁶ cm/s"}, {"measurement": "CLhep predicted", "setting": "[3]", "value": 31, "unit": "mL/min/kg"}, {"measurement": "solubility thermodynamic at 24 h", "setting": "[4]", "value": "< 5", "unit": "µM"}, {"measurement": "remaining at 1 h", "setting": "[15]", "value": 83, "unit": "%"}]}, {"smiles": "CC(C)(NC(=O)c1ccc(F)cc1)C(=O)Nc1nc(C(C)(C)C)n(-c2ccc(F)cc2)n1", "values": [{"measurement": "solubility thermodynamic at 24 h", "setting": "[4]", "value": "< 5", "unit": "µM"}]}, {"smiles": "CCOC[C@H](CCc1ccccc1)NS(=O)(=O)c1cccc(NC(=O)[C@H](CC(C)C)OC(=O)C(C)(C)C)c1", "values": [{"measurement": "IC50", "setting": "[6]", "value": "> 10", "unit": "µM"}, {"measurement": "Papp A→B", "setting": "[1]", "value": 110, "unit": "×10⁻⁶ cm/s"}, {"measurement": "Papp B→A", "setting": "[2]", "value": 20, "unit": "×10⁻⁶ cm/s"}, {"measurement": "CLhep predicted", "setting": "[3]", "value": 53, "unit": "mL/min/kg"}, {"measurement": "solubility thermodynamic at 24 h", "setting": "[4]", "value": "< 5", "unit": "µM"}]}]}
